Test results: patent US20250320206A1, “STAT6 DEGRADERS” (Gilead Sciences, Inc., priority 2024, published 2025)

Assays:
[1] = tested on: Eotaxin-3 release in human whole blood stimulated with IL-4; experiment: Human Whole Blood Eotaxin-3 Assay (IL-4 stimulated eotaxin-3 release); format: cell-based; conditions: IL-4 stimulation, 48 h, values given for compounds with >80% Emax, geometric mean
In short: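 Eotaxin-3 (CCL26) release measured by MSD kit in plasma supernatant after 48 h IL-4 stimulation ([…]) of human whole blood. Compounds added in triplicate 4-fold dilutions 2 h before stimulation; 0.5% DMSO final, 37° C, 5% CO2.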

STAT6 = target: T1, STAT6 (Homo sapiens, UniProt P42226); experiment: Stat6 Degrader Assay (HiBiT based, HeLa LgBiT clone 4.14); format: cell-based; conditions: HeLa LgBiT clone 4.14 HiBiT-STAT6, 4-24 h incubation; values given for compounds with >80% Emax; geometric mean; read-out: STAT6 degradation DC50
T1 construct: These cells express endogenous STAT6; host or cells: HeLa LgBiT clone 4.14
T1 sequence (P42226 1-847): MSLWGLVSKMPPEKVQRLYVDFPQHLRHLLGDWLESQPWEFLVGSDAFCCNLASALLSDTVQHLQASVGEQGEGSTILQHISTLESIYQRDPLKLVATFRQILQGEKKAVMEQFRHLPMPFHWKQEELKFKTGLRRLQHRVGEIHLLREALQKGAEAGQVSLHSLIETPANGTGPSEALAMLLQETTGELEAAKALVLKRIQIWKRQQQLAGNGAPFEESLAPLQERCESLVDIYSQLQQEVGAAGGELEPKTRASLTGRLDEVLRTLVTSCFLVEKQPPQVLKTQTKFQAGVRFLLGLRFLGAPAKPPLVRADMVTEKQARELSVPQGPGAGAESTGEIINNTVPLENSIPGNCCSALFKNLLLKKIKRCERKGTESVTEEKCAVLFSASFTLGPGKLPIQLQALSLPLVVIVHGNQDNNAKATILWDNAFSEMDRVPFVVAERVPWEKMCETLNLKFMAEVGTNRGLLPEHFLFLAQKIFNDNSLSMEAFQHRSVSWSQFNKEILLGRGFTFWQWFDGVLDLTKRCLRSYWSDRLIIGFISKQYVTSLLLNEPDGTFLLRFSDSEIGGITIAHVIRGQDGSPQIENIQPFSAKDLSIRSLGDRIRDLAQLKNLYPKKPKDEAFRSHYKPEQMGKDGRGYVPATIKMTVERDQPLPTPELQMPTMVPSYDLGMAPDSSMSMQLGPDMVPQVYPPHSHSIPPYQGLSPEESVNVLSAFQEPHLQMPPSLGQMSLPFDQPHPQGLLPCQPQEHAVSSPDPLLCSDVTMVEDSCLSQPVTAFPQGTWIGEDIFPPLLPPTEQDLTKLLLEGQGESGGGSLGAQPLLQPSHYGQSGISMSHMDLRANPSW
In short: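 Luminescence from HiBiT-STAT6 complementing stably expressed LgBiT in HeLa clone 4.14 reports remaining STAT6 protein. Cells (5000/well) exposed to compound for 4-24 h at 37° C; read 0.5 h after Nano-Glo addition. 100% degradation window set with 50 μM terfenadine; percent degradation plotted against concentration.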

| SMILES | EC50 [1] | DC50 (STAT6) |
| --- | --- | --- |
| Cc1cc(C(=O)N2CCC(CN3CCN(Cc4ccc5c(c4)C4(CC4)C(=O)N5C4CCC(=O)NC4=O)C[C@@H]3C)CC2)cc(F)c1C1=CCN([C@@H](C)c2cc3c(-n4cc(F)c(N)c(F)c4=O)ccnc3n2C)CC1 (stereo partly drawn) [Example 3u121, 3-(5′-(((S)-4-((1-(4-(1-((S)-1-(4-(4-amino-3,5-difluoro-2-oxopyridin-1 (2H)-yl)-1-methyl-1H-pyrrolo[2,3-b]pyridin-2-yl)ethyl)-1,2,3,6-tetrahydropyridin-4-yl)-3-fluoro-5-methyl-benzoyl)piperidin-4-yl)methyl)-3-methylpiperazin-1-yl)methyl)-2′-oxospiro[cyclopropane-1,3′-indolin]-1′-yl)piperidine-2,6-dione] | 2 nM | 2.5 nM |
| CNc1ccn(-c2ccnc3c2cc([C@H](C)N2CC=C(c4c(C)cc(C(=O)N5CCC(CN6CCN(Cc7ccc8c(c7)C7(CC7)C(=O)N8C7CCC(=O)NC7=O)C[C@@H]6C)CC5)cc4F)CC2)n3C)c(=O)n1 (stereo partly drawn) [Example 3u125, 3-(5′-(((S)-4-((1-(3-fluoro-5-methyl-4-(1-((S)-1-(1-methyl-4-(4-(methylamino)-2-oxopyrimidin-1 (2H)-yl)-1H-pyrrolo[2,3-b]pyridin-2-yl)ethyl)-1,2,3,6-tetrahydropyridin-4-yl)benzoyl)piperidin-4-yl)methyl)-3-methylpiperazin-1-yl)methyl)-2′-oxospiro[cyclopropane-1,3′-indolin]-1′-yl)piperidine-2,6-dione] | 0.6 nM | 0.8 nM |
| C[C@H]1CN(Cc2ccc3c(c2)C2(CC2)C(=O)N3[C@@H]2CCC(=O)NC2=O)CCN1CC1CCN(C(=O)c2cc(F)c(C3=CCN([C@@H](C)c4cc5c(-n6cc(F)c7c(c6=O)CCN7)ccnc5n4C)CC3)c(F)c2)CC1 [Example 3u127, (R)-3-(5′-(((S)-4-((1-(3,5-difluoro-4-(1-((S)-1-(4-(7-fluoro-4-oxo-1,2,3,4-tetrahydro-5H-pyrrolo[3,2-c]pyridin-5-yl)-1-methyl-1H-pyrrolo[2,3-b]pyridin-2-yl)ethyl)-1,2,3,6-tetrahydropyridin-4-yl)benzoyl)piperidin-4-yl)methyl)-3-methylpiperazin-1-yl)methyl)-2′-oxospiro[cyclopropane-1,3′-indolin]-1′-yl)piperidine-2,6-dione] | 14.8 nM | 5.4 nM |
| CNc1cc(=O)n(-c2ccnc3c2cc([C@H](C)N2CC=C(c4c(F)cc(C(=O)N5CCC(CN6CCN(Cc7ccc8c(c7)n(C7CC7)c(=O)n8C7CCC(=O)NC7=O)C[C@@H]6C)CC5)cc4F)CC2)n3C)cc1F (stereo partly drawn) [Example 3u128, 3-(3-cyclopropyl-5-(((S)-4-((1-(3,5-difluoro-4-(1-((S)-1-(4-(5-fluoro-4-(methylamino)-2-oxopyridin-1 (2H)-yl)-1-methyl-1H-pyrrolo[2,3-b]pyridin-2-yl)ethyl)-1,2,3,6-tetrahydropyridin-4-yl)benzoyl)piperidin-4-yl)methyl)-3-methylpiperazin-1-yl)methyl)-2-oxo-2,3-dihydro-1H-benzo[d]imidazol-1-yl)piperidine-2,6-dione] | 1.6 nM | 1.1 nM |
| Cc1cc(C(=O)N2CCC(CN3CCN(Cc4ccc5c(c4)n(C4CC4)c(=O)n5C4CCC(=O)NC4=O)CC3)CC2)cc(F)c1C1=CCN([C@@H](C)c2cc3c(-n4ccc5c(c4=O)CCN5)ccnc3n2C)CC1 (stereo partly drawn) [Example 3u140, 3-(3-cyclopropyl-5-((4-((1-(3-fluoro-5-methyl-4-(1-((S)-1-(1-methyl-4-(4-oxo-1,2,3,4-tetrahydro-5H-pyrrolo[3,2-c]pyridin-5-yl)-1H-pyrrolo[2,3-b]pyridin-2-yl)ethyl)-1,2,3,6-tetrahydropyridin-4-yl)benzoyl)piperidin-4-yl)methyl)piperazin-1-yl)methyl)-2-oxo-2,3-dihydro-1H-benzo[d]imidazol-1-yl)piperidine-2,6-dione] | 1 nM | 1.4 nM |
| Cc1cc(C(=O)N2CCC(CN3CCN(Cc4cc5c(cc4F)n(C4CCC(=O)NC4=O)c(=O)n5C4CC4)CC3)CC2)cc(F)c1C1=CCN([C@@H](C)c2cc3c(-n4ccc5c(c4=O)CCN5)ccnc3n2C)CC1 (stereo partly drawn) [Example 3u146, 3-(3-cyclopropyl-6-fluoro-5-((4-((1-(3-fluoro-5-methyl-4-(1-((S)-1-(1-methyl-4-(4-oxo-1,2,3,4-tetrahydro-5H-pyrrolo[3,2-c]pyridin-5-yl)-1H-pyrrolo[2,3-b]pyridin-2-yl)ethyl)-1,2,3,6-tetrahydropyridin-4-yl)benzoyl)piperidin-4-yl)methyl)piperazin-1-yl)methyl)-2-oxo-2,3-dihydro-1H-benzo[d]imidazol-1-yl)piperidine-2,6-dione] | 1.4 nM | 1.7 nM |

The remaining compounds from weak to strong by EC50 [1], led by results:

| EC50 [1] | DC50 (STAT6) | SMILES |
| --- | --- | --- |
| 6 nM | 8.7 nM | Cc1cc(C(=O)N2CCC(CN3CCN(Cc4ccc5c(c4)C4(CC4)C(=O)N5C4CCC(=O)NC4=O)C[C@@H]3C)CC2)cc(F)c1C1=CCN([C@@H](C)c2cc3c(-n4cc(F)c5c(c4=O)CCN5)ccnc3n2C)CC1 (stereo partly drawn) [Example 3u116, 3-(5′-(((S)-4-((1-(3-fluoro-4-(1-((S)-1-(4-(7-fluoro-4-oxo-1,2,3,4-tetrahydro-5H-pyrrolo[3,2-c]pyridin-5-yl)-1-methyl-1H-pyrrolo[2,3-b]pyridin-2-yl)ethyl)-1,2,3,6-tetrahydropyridin-4-yl)-5-methylbenzoyl)piperidin-4-yl)methyl)-3-methylpiperazin-1-yl)methyl)-2′-oxospiro[cyclopropane-1,3′-indolin]-1′-yl)piperidine-2,6-dione] |
| 2.2 nM | 1.2 nM | CNc1cc(=O)n(-c2ccnc3c2cc([C@H](C)N2CC=C(c4c(C)cc(C(=O)N5CCC(CN6CCN(Cc7ccc8c(c7)n(C7CC7)c(=O)n8C7CCC(=O)NC7=O)C[C@@H]6C)CC5)cc4F)CC2)n3C)cc1F (stereo partly drawn) [Example 3u118, 3-(3-cyclopropyl-5-(((S)-4-((1-(3-fluoro-4-(1-((S)-1-(4-(5-fluoro-4-(methylamino)-2-oxopyridin-1 (2H)-yl)-1-methyl-1H-pyrrolo[2,3-b]pyridin-2-yl)ethyl)-1,2,3,6-tetrahydropyridin-4-yl)-5-methylbenzoyl)piperidin-4-yl)methyl)-3-methylpiperazin-1-yl)methyl)-2-oxo-2,3-dihydro-1H-benzo[d]imidazol-1-yl)piperidine-2,6-dione] |
| 0.6 nM | 1.2 nM | CNc1ccn(-c2ccnc3c2cc([C@H](C)N2CC=C(c4c(C)cc(C(=O)N5CCC(CN6CCN(Cc7ccc8c(c7)n(C7CC7)c(=O)n8C7CCC(=O)NC7=O)CC6)CC5)cc4F)CC2)n3C)c(=O)c1 (stereo partly drawn) [Example 3u122, 3-(3-cyclopropyl-5-((4-((1-(3-fluoro-5-methyl-4-(1-((S)-1-(1-methyl-4-(4-(methylamino)-2-oxopyridin-1 (2H)-yl)-1H-pyrrolo[2,3-b]pyridin-2-yl)ethyl)-1,2,3,6-tetrahydropyridin-4-yl)benzoyl)piperidin-4-yl)methyl)piperazin-1-yl)methyl)-2-oxo-2,3-dihydro-1H-benzo[d]imidazol-1-yl)piperidine-2,6-dione] |
| 0.4 nM | 0.2 nM | Cc1cc(C(=O)N2CCC(CN3CCN(Cc4ccc5c(c4)n(C)c(=O)n5C4CCC(=O)NC4=O)C[C@@H]3C)CC2)cc(F)c1C1=CCN([C@@H](C)c2cc3c(-n4ccc5c(c4=O)CCN5)ccnc3n2C)CC1 (stereo partly drawn) [Example 3u137, 3-(5-(((S)-4-((1-(3-fluoro-5-methyl-4-(1-((S)-1-(1-methyl-4-(4-oxo-1,2,3,4-tetrahydro-5H-pyrrolo[3,2-c]pyridin-5-yl)-1H-pyrrolo[2,3-b]pyridin-2-yl)ethyl)-1,2,3,6-tetrahydropyridin-4-yl)benzoyl)piperidin-4-yl)methyl)-3-methylpiperazin-1-yl)methyl)-3-methyl-2-oxo-2,3-dihydro-1H-benzo[d]imidazol-1-yl)piperidine-2,6-dione] |
| 0.2 nM | 0.4 nM | CN(C(=O)c1cc(F)c(C2CCN(Cc3cc4c(-n5cc(F)c6c(c5=O)CCN6)ccnc4n3C)CC2)c(F)c1)c1ccc(C2CCN(Cc3ccc4c(c3)n(C)c(=O)n4C3CCC(=O)NC3=O)CC2)cc1 (stereo not shown) [Example 3u126, N-(4-(1-((1-(2,6-dioxopiperidin-3-yl)-3-methyl-2-oxo-2,3-dihydro-1H-benzo[d]imidazol-5-yl)methyl)piperidin-4-yl)phenyl)-3,5-difluoro-4-(1-((4-(7-fluoro-4-oxo-1,2,3,4-tetrahydro-5H-pyrrolo[3,2-c]pyridin-5-yl)-1-methyl-1H-pyrrolo[2,3-b]pyridin-2-yl)methyl)piperidin-4-yl)-N-methylbenzamide] |
